Read-outs that look alike come from different tables or passages of the source.
Key:
SRS-A release = experiment: Inhibition of SRS-A (leukotriene) release from ovalbumin-challenged sensitized guinea pig lung fragments; assay type: cell-based; conditions: for inhibition at 1 µM / inhibition at 3 µM / inhibition at 10 µM / inhibition at 30 µM: Cavia porcellus, read-out: Percent Inhibition of SRS-A Release
Protocol: Male, Hartley guinea pigs, usually 1-2 weeks old were sensitized with respect to ovalbumin by intraperitoneal administration of 0.15 ml hyperimmune serum obtained from guinea pigs actively sensitized against ovalbumin. […] Poorly perfused and bloody areas were discarded. Normal lung was cut into 1 mm cubes with a McIlwain tissue chopper, washed with Krebs' solution and divided into 400 mg aliquots. The fragmented tissue was then incubated at 37° C. for 15 minutes in Krebs' solution containing indomethacin to optimize SRS-A release and an appropriate concentration of experimental drug. Antigen (ovalbumin) was then added to make a final concentration of 1×10^-5 g/ml. Fifteen minutes later, the incubation medium was decanted and centrifuged at 3,000 g at 4° C. for 5 minutes. […] Release of SRS-A in the presence of an experimental drug was compared to a control sample and the results expressed as percent inhibition of SRS-A release.

[1] = pKa using 66% aqueous dimethylformamide solution; assay type: physicochemical
Protocol: The precipitate was then dissolved in a solution of 1 L of water and 50 g of sodium hydroxide and then heated to about 60° for about ten minutes. Slowly, 50 g of sodium dithionite were added with stirring. After the addition, the reaction solution was kept at about 60° for about three hours. An orange precipitate was formed and the reaction was then allowed to cool to room temperature and sodium chloride was added. The orange solid, which was filtered and then dried, weighed 19 g (70% yield).
The preparation of 2-methyl-5-amino-8-hydroxyquinoline follows the procedure outlined in Example 1, except 15.9 g of 2-methyl-8-hydroxyquinoline were used as the starting material. […] The mass spectrum indicated the expected molecular ion at m/e=174. The pKa was 5.00, using 66% aqueous dimethylformamide solution and the apparent molecular weight was 188.

[2] = 3 × 10^-6 M, sensitized guinea pig lung fragments, ovalbumin challenge, indomethacin present
[3] = 1 × 10^-5 M, sensitized guinea pig lung fragments, ovalbumin challenge, indomethacin present
[4] = 3 × 10^-5 M, sensitized guinea pig lung fragments, ovalbumin challenge, indomethacin present
[5] = 1 × 10^-6 M, sensitized guinea pig lung fragments, ovalbumin challenge, indomethacin present

**Q.** With `O=C1C(Nc2ccccc2)=CC(=O)c2ncccc21` [7,10, 6-anilinoquinoline-5,8-quinone] as the compound, how does the inhibition at 1 µM (SRS-A release) read?
**A.** 28%

**Q.** And the inhibition at 3 µM (SRS-A release)?
**A.** 54%

**Q.** And the inhibition at 10 µM (SRS-A release)?
**A.** 79%

**Q.** What about the inhibition at 30 µM (SRS-A release) of the same compound?
**A.** 86%

**Q.** Which inhibition at 3 µM (SRS-A release; [2]) does the source give for `CC(=O)c1cccc(NC2=CC(=O)c3ncccc3C2=O)c1` [Example 25, 6-(3-acetylanilino)quinoline-5,8-quinone] here?
**A.** 36%

**Q.** Which results are given for `CCCN(C1=CC(=O)c2ncccc2C1=O)c1ccccc1` [6-(N--propylanilino)quinoline-5,8-quinone]?
**A.** inhibition at 10 µM (SRS-A release; [3]): 28%; inhibition at 30 µM (SRS-A release; [4]): 39%

**Q.** Which pKa [1] does the source give for `Cc1ccc2c(N)ccc(O)c2n1` [Example 2, 2-methyl-5-amino-8-hydroxyquinoline] here?
**A.** 5

**Q.** With `COc1ccccc1NC1=CC(=O)c2ncccc2C1=O` [6-(2-methoxyanilino)quinoline-5,8-quinone] as the compound, how does the inhibition at 30 µM (SRS-A release; [4]) read?
**A.** 38%

**Q.** And the inhibition at 3 µM (SRS-A release; [2])?
**A.** 0%

**Q.** With “6-(flouroanilino)quinoline-5,8-quinone [Example 16]” as the compound, how does the “Percent Inhibition of SRS-A Release” value (SRS-A release; [3]) read?
**A.** 39%

**Q.** For `O=C1C(NC2CC2)=CC(=O)c2ncccc21` [6-cyclopropylaminoquinoline-5,8-quinone], which inhibition at 30 µM (SRS-A release; [4]) is on record?
**A.** 48%

**Q.** With `C=CCN(C1=CC(=O)c2ncccc2C1=O)c1ccccc1` [6-[N--(2-propenyl)anilino]quinoline-5,8-quinone] as the compound, how does the inhibition at 10 µM (SRS-A release; [3]) read?
**A.** 41%

**Q.** Which inhibition at 10 µM (SRS-A release; [3]) does the source give for `Cc1cccc(NC2=CC(=O)c3ncccc3C2=O)c1` [Example 20, 6-(3-methylanilino)quinoline-5,8-quinone] here?
**A.** 69%

**Q.** With `CC(C)NC1=CC(=O)c2ncccc2C1=O` [6-isopropylaminoquinoline-5,8-quinone] as the compound, how does the inhibition at 30 µM (SRS-A release; [4]) read?
**A.** 28%

**Q.** With `O=C1C(Nc2cccc(Cl)c2)=CC(=O)c2ncccc21` [Example 22, 6-(3-chloroanilino)quinoline-5,8-quinone] as the compound, how does the inhibition at 10 µM (SRS-A release; [3]) read?
**A.** 71%

**Q.** For `O=C1C(Nc2ccccc2F)=CC(=O)c2ncccc21` [Example 17, 6-(2-flouroanilino)quinoline-5,8-quinone], which inhibition at 10 µM (SRS-A release; [3]) is on record?
**A.** 71%

**Q.** And the inhibition at 1 µM (SRS-A release; [5])?
**A.** 0%

**Q.** With `CSc1cccc(NC2=CC(=O)c3ncccc3C2=O)c1` [6-(3-methylthioanilino)quinoline-5,8-quinone] as the compound, how does the inhibition at 30 µM (SRS-A release; [4]) read?
**A.** 55%

**Q.** And the inhibition at 3 µM (SRS-A release; [2])?
**A.** 16%

**Q.** For `CN(C1=CC(=O)c2ncccc2C1=O)c1ccccc1` [6-(N--methylanilino)quinoline-5,8-quinone], which inhibition at 10 µM (SRS-A release; [3]) is on record?
**A.** 80%

**Q.** What about the inhibition at 1 µM (SRS-A release; [5]) of the same compound?
**A.** 16%

**Q.** What about the inhibition at 3 µM (SRS-A release; [2]) of the same compound?
**A.** 27%

**Q.** Which inhibition at 10 µM (SRS-A release; [3]) does the source give for `O=C1C(Nc2ccccc2C(F)(F)F)=CC(=O)c2ncccc21` [6-(2-trifluoromethylanilino)quinoline-5,8-quinone] here?
**A.** 52%

**Q.** For `O=C1C(Nc2ccccc2Cl)=CC(=O)c2ncccc21` [6-(2-chloroanilino)quinoline-5,8-quinone], which inhibition at 1 µM (SRS-A release; [5]) is on record?
**A.** 24%

**Q.** And the inhibition at 30 µM (SRS-A release; [4])?
**A.** 78%

**Q.** And the inhibition at 3 µM (SRS-A release; [2])?
**A.** 23%

**Q.** For `O=C1C(N2CCCCC2)=CC(=O)c2ncccc21` [6-piperidinylquinoline-5,8-quinone], which inhibition at 10 µM (SRS-A release; [3]) is on record?
**A.** 68%

**Q.** With `O=C1C(Nc2cccc(C(F)(F)F)c2)=CC(=O)c2ncccc21` [Example 24, 6-(3-triflouromethylanilino)quinoline-5,8-quinone] as the compound, how does the inhibition at 10 µM (SRS-A release; [3]) read?
**A.** 53%

**Q.** With `COc1cccc(NC2=CC(=O)c3ncccc3C2=O)c1` [Example 21, 6-(3-methoxyanilino)quinoline-5,8-quinone] as the compound, how does the inhibition at 10 µM (SRS-A release; [3]) read?
**A.** 72%

**Q.** For `O=C1C(Nc2cccc(Br)c2)=CC(=O)c2ncccc21` [Example 23, 6-(3-bromoanilino)quinoline-5,8-quinone], which inhibition at 10 µM (SRS-A release; [3]) is on record?
**A.** 45%

**Q.** For `CNC1=CC(=O)c2ncccc2C1=O` [6-methylaminoquinoline-5,8-quinone], which inhibition at 10 µM (SRS-A release; [3]) is on record?
**A.** 28%

**Q.** And the inhibition at 30 µM (SRS-A release; [4])?
**A.** 51%

**Q.** With `CCN(C1=CC(=O)c2ncccc2C1=O)c1ccccc1` [Example 15, 6-(N--ethylanilino)quinoline-5,8-quinone] as the compound, how does the inhibition at 10 µM (SRS-A release; [3]) read?
**A.** 53%

**Q.** Which results are given for `O=C1C(Nc2cccc(F)c2)=CC(=O)c2ncccc21` [Example 19, 6-(3-flouroanilino)quinoline-5,8-quinone]?
**A.** inhibition at 10 µM (SRS-A release; [3]): 76%; inhibition at 1 µM (SRS-A release; [5]): 13%; inhibition at 30 µM (SRS-A release; [4]): 94%

**Q.** With `COc1cc(N)c2ncccc2c1N` [Example 1, 5,8-diamino-6-methoxyquinoline] as the compound, how does the pKa [1] read?
**A.** 5.08

**Q.** Which “Percent Inhibition of SRS-A Release” value (SRS-A release; [4]) does the source give for `CCCN(C)C1=CC(=O)c2ncccc2C1=O` [6-methylpropylaminoquinoline-5,8-quinone] here?
**A.** 61%

**Q.** Which inhibition at 30 µM (SRS-A release; [4]) does the source give for `Cc1ccccc1NC1=CC(=O)c2ncccc2C1=O` [6-(2-methylanilino)quinoline-5,8-quinone] here?
**A.** 80%

**Q.** And the inhibition at 3 µM (SRS-A release; [2])?
**A.** 17%

**Q.** With `O=C1C(Nc2ccc(O)cc2)=CC(=O)c2ncccc21` [Example 13, 6-(4-hydroxyanilino)quinoline-5,8-quinone] as the compound, how does the inhibition at 10 µM (SRS-A release; [3]) read?
**A.** 58%

**Q.** With `Cc1ccc2c(n1)C(=O)C=C(Nc1ccccc1)C2=O` [Example 11, 2-methyl-6-anilinoquinoline-5,8-quinone] as the compound, how does the inhibition at 10 µM (SRS-A release; [3]) read?
**A.** 55%

**Q.** With `CN(C)CCNC1=CC(=O)c2ncccc2C1=O` [Example 18, 6-dimethylaminoethylaminoquinoline-5,8-quinone] as the compound, how does the inhibition at 10 µM (SRS-A release; [3]) read?
**A.** 40%

**Q.** With `C=CCNC1=CC(=O)c2ncccc2C1=O` [6-(2-propenyl)aminoquinoline-5,8-quinone] as the compound, how does the inhibition at 10 µM (SRS-A release; [3]) read?
**A.** 53%

**Q.** Which inhibition at 10 µM (SRS-A release; [3]) does the source give for `O=C1C(Nc2ccc(Cl)cc2)=CC(=O)c2ncccc21` [6-(4-chloroanilino)quinoline-5,8-quinone] here?
**A.** 23%

**Q.** What about the inhibition at 30 µM (SRS-A release; [4]) of the same compound?
**A.** 68%

**Q.** Which results are given for `O=C1C(N2CCOCC2)=CC(=O)c2ncccc21` [6-morpholinylquinoline-5,8-quinone]?
**A.** inhibition at 10 µM (SRS-A release; [3]): 28%; inhibition at 30 µM (SRS-A release; [4]): 63%

**Q.** Which inhibition at 10 µM (SRS-A release; [3]) does the source give for `COc1ccc(NC2=CC(=O)c3ncccc3C2=O)cc1` [Example 8, 6-(4-methoxyanilino)quinoline-5,8-quinone] here?
**A.** 32%

**Q.** What does the source list for `O=C1C(NC2CCCCC2)=CC(=O)c2ncccc21` [Example 14, 6-cyclohexylaminoquinoline-5,8-quinone]?
**A.** inhibition at 10 µM (SRS-A release; [3]): 53%; inhibition at 1 µM (SRS-A release; [5]): 0%

**Q.** Which inhibition at 10 µM (SRS-A release; [3]) does the source give for `O=C1C(Nc2cccc3c2CCCC3)=CC(=O)c2ncccc21` [Example 12, 6-(1-amino-5,6,7,8-tetrahydronaphthalene)quinoline-5,8-quinone] here?
**A.** 23%

**Q.** Which inhibition at 10 µM (SRS-A release; [3]) does the source give for `O=C1C(Nc2ccc([N+](=O)[O-])cc2)=CC(=O)c2ncccc21` [Example 9, 6-(4-nitroanilino)quinoline-5,8-quinone] here?
**A.** 41%

Source: patent publication US4492704A, “Quinoline quinones and anti-asthmatic use thereof” (Eli Lilly and Company, priority 1982, dated 1985)
